Broadly, the IC50 is the concentration that gives 50% inhibition.

A value given as a limit tells only on which side of the number the result lay.

T1 sequence (Q8NER1 whole entry): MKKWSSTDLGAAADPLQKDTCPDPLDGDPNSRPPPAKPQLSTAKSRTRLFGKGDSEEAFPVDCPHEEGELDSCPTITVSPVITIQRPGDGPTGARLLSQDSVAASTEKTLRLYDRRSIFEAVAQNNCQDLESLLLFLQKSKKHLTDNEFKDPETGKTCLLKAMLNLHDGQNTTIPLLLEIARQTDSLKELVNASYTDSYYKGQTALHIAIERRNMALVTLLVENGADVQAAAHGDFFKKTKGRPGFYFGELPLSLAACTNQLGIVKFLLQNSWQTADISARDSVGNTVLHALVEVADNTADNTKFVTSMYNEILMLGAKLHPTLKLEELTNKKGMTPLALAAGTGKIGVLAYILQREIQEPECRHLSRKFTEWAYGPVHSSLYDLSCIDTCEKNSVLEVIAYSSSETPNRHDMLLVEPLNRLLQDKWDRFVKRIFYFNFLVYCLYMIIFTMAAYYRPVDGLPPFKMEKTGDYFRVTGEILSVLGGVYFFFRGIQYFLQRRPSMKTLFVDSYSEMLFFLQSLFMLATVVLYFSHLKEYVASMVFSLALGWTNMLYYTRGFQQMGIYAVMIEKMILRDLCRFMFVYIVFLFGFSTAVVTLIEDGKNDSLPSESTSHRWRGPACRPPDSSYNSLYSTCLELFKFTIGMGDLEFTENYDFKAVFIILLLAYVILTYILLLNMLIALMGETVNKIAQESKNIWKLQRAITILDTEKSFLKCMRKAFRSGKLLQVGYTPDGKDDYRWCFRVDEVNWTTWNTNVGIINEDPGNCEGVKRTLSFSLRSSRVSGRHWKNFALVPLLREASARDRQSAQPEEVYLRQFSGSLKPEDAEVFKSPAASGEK

The assay addresses T1, human capsaicin receptor (Homo sapiens, UniProt Q8NER1).
T1 construct: pBK-CMV expression construct encoding the full length human capsaicin receptor; expressed in transfected cells
Briefly: Calcium mobilization assay, determination of antagonist activity (Example 6). In kind it is cell-based. The conditions noted are these: 50% decrease in fluorescence response of cells expressing human capsaicin receptor exposed to capsaicin. As for the experimental part:
A cDNA encoding full length human capsaicin receptor (SEQ ID NO:1, 2 or 3 of U.S. Pat. No. 6,482,611) was subcloned in the plasmid pBK-CMV (Stratagene, La Jolla, Calif.) for recombinant expression in mammalian cells.
Human embryonic kidney (HEK293) cells were transfected with the pBK-CMV expression construct encoding the full length human capsaicin receptor using standard methods. The transfected cells were selected for two weeks in media containing G418 (400 μg/ml) to obtain a pool of stably transfected cells. Independent clones were isolated from this pool by limiting dilution to obtain clonal stable cell lines for use in subsequent experiments.
Cells transfected with expression plasmids (as described in Example 4) and thereby expressing human capsaicin receptor are seeded and grown to 70-90% confluency in FALCON black-walled, clear-bottomed 96-well plates (#3904, BECTON-DICKINSON, Franklin Lakes, N.J.). The culture medium is emptied from the 96 well plates and FLUO-3 AM calcium sensitive dye (Molecular Probes, Eugene, Oreg.) is added to each well (dye solution: 1 mg FLUO-3 AM, 440 μL DMSO and 440 μl 20% pluronic acid in DMSO, diluted 1:250 in Krebs-Ringer HEPES (KRH) buffer (25 mM HEPES, 5 mM KCl, 0.96 mM NaH2PO4, 1 mM MgSO4, 2 mM CaCl2, 5 mM glucose, 1 mM probenecid, pH 7.4), 50 μl diluted solution per well). Plates are covered with aluminum foil and incubated at 37° C. for 1-2 hours in an environment containing 5% CO2. After the incubation, the dye is emptied from the plates, and the cells are washed once with KRH buffer, and resuspended in KRH buffer.
To measure the ability of a test compound to agonize or antagonize a calcium mobilization response in cells expressing capsaicin receptors to capsaicin or other vanilloid agonist, the EC50 of the agonist capsaicin is first determined. An additional 20 μl of KRH buffer and 1 μl DMSO is added to each well of cells, prepared as described above. 100 μl capsaicin in KRH buffer is automatically transferred by the FLIPR instrument to each well. Capsaicin-induced calcium mobilization is monitored using either FLUOROSKAN ASCENT (Labsystems; Franklin, Mass.) or FLIPR (fluorometric imaging plate reader system; Molecular Devices, Sunnyvale, Calif.) instruments. Data obtained between 30 and 60 seconds after agonist application are used to generate an 8-point concentration response curve, with final capsaicin concentrations of 1 nM to 3 μM. KALEIDAGRAPH software (Synergy Software, Reading, Pa.) is used to fit the data to the equation: y=a*(1/(1+(b/x)^c)) to determine the 50% excitatory concentration (EC50) for the response. In this equation, y is the maximum fluorescence signal, x is the concentration of the agonist or antagonist (in this case, capsaicin), a is the Emax, b corresponds to the EC50 value and c is the Hill coefficient. Determination of Agonist Activity
Test compounds are dissolved in DMSO, diluted in 20 μl KRH buffer so that the final concentration of test compounds in the assay well is between 1 μM and 5 μM, and added to cells prepared as described above. The 96 well plates containing prepared cells and test compounds are incubated in the dark, at room temperature for 0.5 to 6 hours. It is important that the incubation not continue beyond 6 hours. Just prior to determining the fluorescence response, 100 μl capsaicin in KRH buffer at twice the EC50 concentration determined as described above is automatically added by the FLIPR instrument to each well of the 96 well plate for a final sample volume of 200 μl and a final capsaicin concentration equal to the EC50. The final concentration of test compounds in the assay wells is between 1 μM and […]. […] The concentration of antagonist required to provide a 50% decrease, relative to the response observed in the presence of capsaicin and without antagonist, is the IC50 for the antagonist, and is preferably below 1 micromolar, 100 nanomolar, 10 nanomolar or 1 nanomolar.
Background: Calcium flux is commonly read through the fluorescence of an indicator in the cells.
Turning to `C[C@H]1CN(c2ncccc2C(F)(F)F)CCN1c1nc(Nc2ccc(C(F)(F)F)cc2)nc(-c2ccccc2Cl)n1` [Compound 16, {4-(2-Chloro-phenyl)-6-[2-methyl-4-(3-trifluoromethyl-pyridin-2-yl)-piperazin-1-yl]-[1,3,5]triazin-2-yl}-(4-trifluoromethyl-phenyl)-amine (S)], the IC50 is at most 1000 nM. Turning to `CCCCN(C)c1nc(Nc2cccc(F)c2)nc(N2CCN(c3ncccc3Cl)CC2)n1` [Compound 75, N-Butyl-6-[4-(3-chloro-pyridin-2-yl)-piperazin-1-yl]-N′-(3-fluoro-phenyl)-N-methyl-[1,3,5]triazine-2,4-diamine], the IC50 was at most 1000 nM.

As for `Fc1cccc(Nc2nc(N3CCCCCC3)nc(N3CCN(c4ncccc4Cl)CC3)n2)c1` [Compound 78, {4-Azepan-1-yl-6-[4-(3-chloro-pyridin-2-yl)-piperazin-1-yl]-[1,3,5]triazin-2-yl}-(3-fluoro-phenyl)-amine], the IC50 was at most 1000 nM. For the molecule `C[C@@H]1CN(c2ncccc2Cl)CCN1c1cc(Nc2ccc(C(C)(C)C)cc2)ncn1` [Compound 1, (4-tert-Butyl-phenyl)-{6-[4-(3-chloro-pyridin-2-yl)-2-methyl-piperazin-1-yl]-pyrimidin-4-yl}-amine (R)], the IC50 is at most 1000 nM. In the case of `C[C@@H]1CN(c2ncccc2S(C)(=O)=O)CCN1c1nc(Nc2ccc(F)c(F)c2)nc(N2CCOCC2)n1` [Compound 103, (3,4-Difluoro-phenyl)-{4-[4-(3-methanesulfonyl-pyridin-2-yl)-2-methyl-piperazin-1-yl]-6-morpholin-4-yl-[1,3,5]triazin-2-yl}-amine (R)] it was at most 1000 nM; in that of `Cc1nc(Nc2ccc(C(F)(F)F)cc2)nc(N2CCN(c3ncccc3Cl)CC2)n1` [Compound 82, {4-[4-(3-Chloro-pyridin-2-yl)-piperazin-1-yl]-6-methyl-[1,3,5]triazin-2-yl}-(4-trifluoromethyl-phenyl)-amine], at most 1000 nM; in that of `CCCN(CCC)c1nc(Nc2ccc(C(F)(F)F)cc2)nc(N2CCN(c3ncccc3Cl)C[C@H]2C)n1` [Compound 33, 6-[4-(3-Chloro-pyridin-2-yl)-2-methyl-piperazin-1-yl]-N,N-dipropyl-N′-(4-trifluoromethyl-phenyl)-[1,3,5]triazine-2,4-diamine (R)], at most 1000 nM. With `C[C@@H]1CN(c2ncccc2Cl)CCN1c1nc(Cl)nc(Nc2ccc(C(F)(C(F)(F)F)C(F)(F)F)cc2)n1` [Compound 24, {4-Chloro-6-[4-(3-chloro-pyridin-2-yl)-2-methyl-piperazin-1-yl]-[1,3,5]triazin-2-yl}-[4-(1,2,2,2-tetrafluoro-1-trifluoromethyl-ethyl)-phenyl]-amine (R)], the IC50 was at most 1000 nM. In the case of `CCCCN(CCCC)c1nc(Nc2ccc(C(F)(F)F)cc2)nc(N2CCN(c3ncccc3Cl)C[C@H]2C)n1` [Compound 34, N,N-Dibutyl-6-[4-(3-chloro-pyridin-2-yl)-2-methyl-piperazin-1-yl]-N′-(4-trifluoromethyl-phenyl)-[1,3,5]triazine-2,4-diamine (R)] it was at most 1000 nM.

Turning to `C[C@H]1CN(c2ncccc2Cl)CCN1c1nc(Nc2ccc(C(F)(F)F)cc2)nc(N(C)C)n1` [Compound 53, 6-[4-(3-Chloro-pyridin-2-yl)-2-methyl-piperazin-1-yl]-N,N-dimethyl-N′-(4-trifluoromethyl-phenyl)-[1,3,5]triazine-2,4-diamine (S)], the IC50 is at most 1000 nM. Regarding `OCc1nc(Nc2ccc(F)c(F)c2)cc(N2CCN(c3ncccc3C(F)(F)F)CC2)n1` [Compound 110, {4-(3,4-Difluoro-phenylamino)-6-[4-(3-trifluoromethyl-pyridin-2-yl)-piperazin-1-yl]-pyrimidin-2-yl}-methanol], the IC50 was at most 1000 nM.

Consider `CN(C)c1nc(Nc2cccc(F)c2)nc(N2CCN(c3ncccc3Cl)CC2)n1` [Compound 76, 6-[4-(3-Chloro-pyridin-2-yl)-piperazin-1-yl]-N-(3-fluoro-phenyl)-N′,N′-dimethyl-[1,3,5]triazine-2,4-diamine], for which the IC50 was at most 1000 nM.

Consider `Fc1cccc(Nc2nc(N3CCOCC3)nc(N3CCN(c4ncccc4Cl)CC3)n2)c1` [Compound 60, {4-[4-(3-Chloro-pyridin-2-yl)-piperazin-1-yl]-6-morpholin-4-yl-[1,3,5]triazin-2-yl}-(3-fluoro-phenyl)-amine], for which the IC50 was at most 1000 nM. In the case of `CCCN(C)c1nc(Nc2cccc(F)c2)nc(N2CCN(c3ncccc3Cl)CC2)n1` [Compound 74, 6-[4-(3-Chloro-pyridin-2-yl)-piperazin-1-yl]-N-(3-fluoro-phenyl)-N′-methyl-N′-propyl-[1,3,5]triazine-2,4-diamine] it was at most 1000 nM. In the case of `Clc1cccnc1N1CCN(c2nc(Nc3ccccc3)nc(N3CCOCC3)n2)CC1` [Compound 97, {4-[4-(3-Chloro-pyridin-2-yl)-piperazin-1-yl]-6-morpholin-4-yl-[1,3,5]triazin-2-yl}-phenyl-amine] it was at most 1000 nM; in that of `CCN(CC)Cc1nc(Nc2ccc(F)c(F)c2)cc(N2CCN(c3ncccc3C(F)(F)F)CC2)n1` [Compound 111, {2-Diethylaminomethyl-6-[4-(3-trifluoromethyl-pyridin-2-yl)-piperazin-1-yl]-pyrimidin-4-yl}-(3,4-difluoro-phenyl)-amine], at most 1000 nM; in that of `Cc1cccc(Nc2nc(N3CCOCC3)cc(N3CCN(c4ncccc4C(F)(F)F)CC3)n2)c1` [Compound 86, {4-Morpholin-4-yl-6-[4-(3-trifluoromethyl-pyridin-2-yl)-piperazin-1-yl]-pyrimidin-2-yl}-m-tolyl-amine], at most 1000 nM.

`Fc1ccc(Nc2nc(N3CCOCC3)nc(N3CCN(c4ncccc4C(F)(F)F)CC3)n2)cc1F` [Compound 69, (3,4-Difluoro-phenyl)-{4-morpholin-4-yl-6-[4-(3-trifluoromethyl-pyridin-2-yl)-piperazin-1-yl]-[1,3,5]triazin-2-yl}-amine]: the IC50 is at most 1000 nM. In the case of `CC(C)N(C)c1nc(Nc2ccccc2)nc(N2CCN(c3ncccc3Cl)CC2)n1` [Compound 54, 6-[4-(3-Chloro-pyridin-2-yl)-piperazin-1-yl]-N-isopropyl-N-methyl-N′-phenyl-[1,3,5]triazine-2,4-diamine] it was at most 1000 nM; in that of `Fc1ccc(Nc2cc(N3CCN(c4ccccn4)CC3)nc(N3CCOCC3)n2)cc1` [Compound 98, (4-Fluoro-phenyl)-[2-morpholin-4-yl-6-(4-pyridin-2-yl-piperazin-1-yl)-pyrimidin-4-yl]-amine], at most 1000 nM; in that of `CN(C)c1nc(Nc2ccc(C(F)(F)F)cc2)nc(N2CCN(c3ccccc3)CC2)n1` [Compound 42, N,N-Dimethyl-6-(4-phenyl-piperazin-1-yl)-N′-(4-trifluoromethyl-phenyl)-[1,3,5]triazine-2,4-diamine], at most 1000 nM. The figure for `Cc1ccc(Nc2nc(N3CCOCC3)cc(N3CCN(c4ncccc4C(F)(F)F)CC3)n2)cc1` [Compound 87, {4-Morpholin-4-yl-6-[4-(3-trifluoromethyl-pyridin-2-yl)-piperazin-1-yl]-pyrimidin-2-yl}-p-tolyl-amine] is at most 1000 nM; for `Fc1cccc(Nc2nc(N3CCCC3)nc(N3CCN(c4ncccc4Cl)CC3)n2)c1` [Compound 73, {4-[4-(3-Chloro-pyridin-2-yl)-piperazin-1-yl]-6-pyrrolidin-1-yl-[1,3,5]triazin-2-yl}-(3-fluoro-phenyl)-amine] it is at most 1000 nM.
